Like-named read-outs stand apart in the source and are kept apart here.
Columns and labels:
[1] = Stability in liver microsomes, dog
[2] = dog
[3] = Stability in liver microsomes, rat
[4] = rat
[5] = Stability in human subcutaneous skin homogenate; conditions: for AUC: human
Method: The pool of skin homogenate was prepared by combining equal volumes of three lots that were tested in the initial skin homogenate lot assessment experiments.
A stock solution of calcein-AM was first prepared at 5 mM in DMSO, followed by a serial dilution into methanol at a concentration of 100 μM. 495 μL of skin homogenate was thawed and warmed to 37° C. A 5 μL aliquot of the 100 μM calcein-AM solution was spiked into the skin homogenate, for a final calcein-AM dosing concentration of 1 μM. After briefly mixing, 150 μL aliquots were removed in triplicate and transferred to 96-well Falcon plates. The plates were placed onto a Thermomixer and maintained at 37° C., with gentle shaking for the duration of the experiment. At each time point (0, 15, 30, 60, and 120 minutes), the plate was removed from the Thermomixer and transferred to a FLUOstar® plate reader, and the formation of calcein (Sigma) was monitored by fluorescence (490/515 nm). Calibration standards of calcein were prepared in distilled water by serial dilutions of a calcein DMSO stock at final concentrations ranging from 1 μM to 1 nM. All samples and standards were read concurrently (Table 13).
For each of the test articles, 495 μL of skin homogenate was added to triplicate centrifuge tubes. To each tube, 5 μL of a 100 μM solution of test article was added, for a final test article dosing concentration of 1 μM. The tubes were placed onto a Thermomixer and maintained at 37° C. with gentle shaking for the duration of the experiment. At each time point (0, 30, 60, and 120 minutes), a 100 μL aliquot was removed from each tube and combined with 200 μL of acetonitrile to stop the stability reaction. The tubes were mixed and centrifuged at 3000 rpm for 10 minutes. Aliquots of supernatant were removed and diluted 1:1 with distilled water containing internal standard (2 μM treprostinil-d4). Calibration standards for the treprostinil analysis were prepared for each test article in a surrogate matrix (supernatant from a mixture of 1:2 human plasma:acetonitrile), at concentrations ranging from 1 μM to 1 nM. Calibration standards were also diluted 1:1 with distilled water containing internal standard. The disappearance of each individual test article was monitored, as well as the formation of treprostinil (Table 14 and Table 15).

[6] = Stability in liver microsomes, human; conditions: for AUC: human

Trep Concentration 0 min [1] [µM] | Trep Concentration 10 min [1] [µM] | Trep Concentration 20 min [1] [µM] | Trep Concentration 30 min [1] [µM] | Trep Concentration 60 min [1] [µM] | AUC [2] [µmol·min/L] | Trep Concentration 0 min [3] [µM] | Trep Concentration 10 min [3] [µM] | Trep Concentration 20 min [3] [µM] | Trep Concentration 30 min [3] [µM] | Trep Concentration 60 min [3] [µM] | AUC [4] [µmol·min/L] | Trep Concentration 0 min [5] [µM] | Trep Concentration 30 min [5] [µM] | Trep Concentration 60 min [5] [µM] | Trep Concentration 120 min [5] [µM] | AUC [5] [µmol·min/L] | Trep Concentration 0 min [6] [µM] | Trep Concentration 20 min [6] [µM] | Trep Concentration 30 min [6] [µM] | Compound | further results
0.0977 | 0.347 | 0.495 | 0.562 | 0.664 | 30.11 | 0.011 | 0.0524 | 0.0901 | 0.122 | 0.196 | 6.86 | 0 | 0.206 | 0.369 | 0.533 | 38.78 | 0.036 | 0.227 | 0.31 | CCCCCC(CCC1C(O)CC2Cc3c(cccc3OCC(=O)O)CC21)OC(=O)CN (stereo not drawn) [XXX] | Trep Concentration 10 min [6]: 0.132 µM; Trep Concentration 60 min [6]: 0.429 µM; AUC [6]: 16.41 µmol·min/L
0 | 0 | 0 | 0 | 0 | 0.00 | 0 | 0 | 0 | 0 | 0 | 0.00 | 0 | 0 | 0 | 0 | 0.00 | 0 | 0 | 0 | CCCCCC(CCC1C(O)CC2Cc3c(cccc3OCC(=O)O)CC21)OC(=O)OCC(=O)O (stereo not drawn) [XXXIX] | Trep Concentration 10 min [6]: 0 µM; Trep Concentration 60 min [6]: 0 µM; AUC [6]: 0.00 µmol·min/L
0.45 | 0.57 | 0.66 | 0.74 | 0.85 | 42.10 | 0.29 | 0.46 | 0.48 | 0.53 | 0.53 | 29.40 | 0 | 0.064 | 0.12 | 0.22 | 13.92 | 0.55 | 0.5 | 0.39 | CCCCCC(CCC1C(O)CC2Cc3c(cccc3OCC(=O)O)CC21)OC(=O)OC(C)C (stereo not drawn) [XVII] | Trep Concentration 10 min [6]: 0.55 µM; Trep Concentration 60 min [6]: 0.27 µM; AUC [6]: 25.10 µmol·min/L
0.66 | 0.95 | 1.01 | 1.01 | 0.92 | 56.90 | 0.98 | 0.97 | 0.92 | 0.91 | 0.86 | 54.90 | 0 | 0.17 | 0.31 | 0.53 | 34.95 | 0.69 | 0.49 | 0.41 | CCCCCC(CCC1C(O)CC2Cc3c(cccc3OCC(=O)O)CC21)OC(=O)OCC (stereo not drawn) [XVI] | Trep Concentration 10 min [6]: 0.6 µM; Trep Concentration 60 min [6]: 0.25 µM; AUC [6]: 26.30 µmol·min/L
0 | 0 | 0 | 0 | 0 | 0.00 | 0 | 0 | 0 | 0 | 0.016 | 0.24 | 0 | 0 | 0 | 0 | 0.00 | 0 | 0 | 0 | CCCCCC(O)CCC1C(OC(=O)CCC(=O)O)CC2Cc3c(cccc3OCC(=O)O)CC21 (stereo not drawn) [XXII] | Trep Concentration 10 min [6]: 0 µM; Trep Concentration 60 min [6]: 0 µM; AUC [6]: 0.00 µmol·min/L
0 | 0 | 0 | 0 | 0 | 0.00 | 0 | 0 | 0 | 0 | 0 | 0.00 | 0 | 0 | 0 | 0 | 0.00 | 0 | 0.014 | 0.018 | CCCCCC(CCC1C(O)CC2Cc3c(cccc3OCC(=O)O)CC21)OC(=O)N1CCCCC1 (stereo not drawn) [XIX] | Trep Concentration 10 min [6]: 0 µM; Trep Concentration 60 min [6]: 0.022 µM; AUC [6]: 0.83 µmol·min/L
0 | 0.012 | 0.0177 | 0.025 | 0.0334 | 1.30 | 0 | 0.00463 | 0.00443 | 0.0102 | 0.0178 | 0.56 | 0 | 0.0333 | 0.0488 | 0.0759 | 5.47 | 0.00482 | 0.0168 | 0.0173 | CCCCC[C@@H](CC[C@@H]1[C@H]2Cc3cccc(OCC(=O)O)c3C[C@H]2C[C@H]1O)OC(=O)[C@@H](N)C(C)C [XXIX] | Trep Concentration 60 min [6]: 0.0265 µM; AUC [6]: 1.05 µmol·min/L
0 | 0 | 0 | 0 | 0 | 0.00 | 0 | 0 | 0 | 0 | 0 | 0.00 | 0 | 0 | 0 | 0 | 0.00 | 0 | 0 | 0 | CCCCCC(CCC1C(O)CC2Cc3c(cccc3OCC(=O)O)CC21)OC(=O)NCC(=O)O (stereo not drawn) [XXXVIII] | Trep Concentration 10 min [6]: 0 µM; Trep Concentration 60 min [6]: 0 µM; AUC [6]: 0.00 µmol·min/L

— patent publication US12491170B2, “Stable treprostinil prodrugs” (United Therapeutics Corporation, priority 2020, dated 2025)
